Among the data in ChEMBL document CHEMBL4017513, “Structure-Activity Relationships of Potent, Targeted Covalent Inhibitors That Abolish Both the Transamidation and GTP Binding Activities of Human Tissue Transglutaminase” (J Med Chem, 2017) are Ratio, K and EC50 values, retold here.

Assay [1] concerns the target T1, Protein-glutamine gamma-glutamyltransferase (Homo sapiens) (UniProt P21980).
T1 sequence (whole entry): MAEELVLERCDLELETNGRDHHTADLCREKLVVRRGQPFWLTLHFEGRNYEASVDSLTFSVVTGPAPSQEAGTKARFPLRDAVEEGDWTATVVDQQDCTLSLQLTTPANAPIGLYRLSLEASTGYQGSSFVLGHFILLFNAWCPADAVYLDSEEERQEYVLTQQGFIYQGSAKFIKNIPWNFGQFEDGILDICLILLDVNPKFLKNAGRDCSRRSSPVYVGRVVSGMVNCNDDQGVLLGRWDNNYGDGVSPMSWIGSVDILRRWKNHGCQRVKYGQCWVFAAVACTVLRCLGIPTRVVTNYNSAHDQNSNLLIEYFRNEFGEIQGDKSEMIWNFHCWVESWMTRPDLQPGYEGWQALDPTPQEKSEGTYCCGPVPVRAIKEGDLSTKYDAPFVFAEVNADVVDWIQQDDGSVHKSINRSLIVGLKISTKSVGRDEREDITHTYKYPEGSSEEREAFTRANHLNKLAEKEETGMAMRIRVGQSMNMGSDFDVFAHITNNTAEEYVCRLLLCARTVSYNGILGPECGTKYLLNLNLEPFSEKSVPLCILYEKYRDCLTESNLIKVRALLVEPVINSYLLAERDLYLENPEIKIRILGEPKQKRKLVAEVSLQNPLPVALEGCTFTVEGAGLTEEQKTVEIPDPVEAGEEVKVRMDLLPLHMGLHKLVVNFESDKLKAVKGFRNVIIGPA
The assay can be described thus: Ratio of kinact to Ki for human TG2 by colorimetric assay.

The target in assay [2] is T2, Protein-glutamine gamma-glutamyltransferase K (Homo sapiens) (UniProt P22735).
T2 sequence (whole entry): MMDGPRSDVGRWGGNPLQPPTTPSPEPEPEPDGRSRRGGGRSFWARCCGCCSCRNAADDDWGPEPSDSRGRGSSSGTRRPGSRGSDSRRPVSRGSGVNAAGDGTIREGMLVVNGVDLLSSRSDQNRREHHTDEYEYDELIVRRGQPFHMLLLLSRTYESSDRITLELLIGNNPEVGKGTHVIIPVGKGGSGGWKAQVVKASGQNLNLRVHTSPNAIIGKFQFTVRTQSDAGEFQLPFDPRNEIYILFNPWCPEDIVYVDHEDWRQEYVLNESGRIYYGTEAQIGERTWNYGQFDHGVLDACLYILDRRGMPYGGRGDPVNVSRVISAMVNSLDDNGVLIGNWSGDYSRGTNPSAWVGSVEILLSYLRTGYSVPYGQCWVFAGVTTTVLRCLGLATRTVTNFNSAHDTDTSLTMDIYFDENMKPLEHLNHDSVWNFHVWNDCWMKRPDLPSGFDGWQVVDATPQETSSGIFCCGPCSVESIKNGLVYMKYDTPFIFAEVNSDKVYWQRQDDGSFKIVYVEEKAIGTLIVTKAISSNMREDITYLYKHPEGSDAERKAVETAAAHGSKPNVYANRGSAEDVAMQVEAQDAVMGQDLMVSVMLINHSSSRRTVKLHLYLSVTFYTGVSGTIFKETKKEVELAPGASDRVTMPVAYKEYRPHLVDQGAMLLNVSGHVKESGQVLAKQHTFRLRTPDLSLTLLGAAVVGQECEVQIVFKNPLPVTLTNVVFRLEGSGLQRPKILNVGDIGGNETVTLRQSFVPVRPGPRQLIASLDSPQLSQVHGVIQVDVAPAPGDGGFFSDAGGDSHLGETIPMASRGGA
The assay can be described thus: Inactivation of human TG1 using AL5 as substrate by colorimetric assay.

Assay [3] deals with T3, Coagulation factor XIII A chain (Homo sapiens) (UniProt P00488).
T3 sequence (whole entry): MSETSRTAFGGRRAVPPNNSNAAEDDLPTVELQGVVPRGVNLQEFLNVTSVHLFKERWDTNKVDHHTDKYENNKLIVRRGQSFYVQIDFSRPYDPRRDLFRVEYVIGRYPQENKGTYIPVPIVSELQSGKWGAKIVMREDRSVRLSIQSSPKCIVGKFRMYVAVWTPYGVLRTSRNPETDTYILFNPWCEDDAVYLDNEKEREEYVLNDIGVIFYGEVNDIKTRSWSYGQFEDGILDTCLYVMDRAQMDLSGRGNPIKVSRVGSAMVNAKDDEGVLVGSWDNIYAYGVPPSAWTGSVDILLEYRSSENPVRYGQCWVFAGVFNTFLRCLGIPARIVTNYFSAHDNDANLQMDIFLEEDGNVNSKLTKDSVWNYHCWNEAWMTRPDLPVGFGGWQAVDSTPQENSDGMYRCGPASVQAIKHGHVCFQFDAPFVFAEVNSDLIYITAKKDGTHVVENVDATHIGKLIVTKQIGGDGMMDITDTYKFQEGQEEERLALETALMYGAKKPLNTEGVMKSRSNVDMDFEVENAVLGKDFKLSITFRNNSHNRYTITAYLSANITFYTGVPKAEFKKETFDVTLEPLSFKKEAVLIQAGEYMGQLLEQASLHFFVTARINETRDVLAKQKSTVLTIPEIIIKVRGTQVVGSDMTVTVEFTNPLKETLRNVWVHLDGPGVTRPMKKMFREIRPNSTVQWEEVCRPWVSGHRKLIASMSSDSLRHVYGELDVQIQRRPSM
Put plainly: Inactivation of human F13a assessed as rate constant of enzyme inhibition using FRET- quenched A101 as substrate by fluorescence assay.

Assay [4] is described as follows: Inhibition of human ECS cells invasion by using Engelbreth-Holm-Swarm mouse tumor matrigel measured after 18 hrs by DAPI staining-based flourescence microscopy. Type of assay: functional, cell-based.
The next assay is filed under the species Cavia porcellus. The assay can be described thus: Ratio of Kinact to Ki for guinea pig liver TG2.

The structures appear in SMILES notation. A value given as a limit tells only on which side of the number the result lay.

By EC50 is commonly meant the concentration giving half of the maximal effect. For `C=CC(=O)NCCCC[C@H](NC(=O)OCc1ccccc1)C(=O)NCCOCCOCCNS(=O)(=O)c1cccc2c(N(C)C)cccc12`, the values for the Ratio (in assay [1]; in the assay listed under Cavia porcellus) were 76.4 ×10³ /M/min and 1.4 ×10⁴ /M/min, respectively. The figures for the K in assay [2] and in assay [3] were 78.9 ×10⁻³ /min and 5.91 ×10⁻³ /min, respectively. Moreover, the EC50 in assay [4] is more than 20 µM.
